Data from ChEMBL document CHEMBL5634109, “Synthesis and mechanism of action of new purine derivatives against triple negative breast cancer” (Eur J Med Chem, 2023).
Calls of active or inactive are those of the source. No cut-off for these calls is given here.

Key:
MDA-MB-231 [1] = assay: Antiproliferative activity against human MDA-MB-231 cells assessed as reduction in cell viability measured for 48 hrs by MTT assay; assay type: functional, cell-based; conditions: MDA-MB-231, 48 h
MDA-MB-231 [2] = assay: Induction of apoptosis in human MDA-MB-231 cells assessed as apoptotic cells at 40 uM incubated for 12 hrs by Annexin V-FITC/PI staining based analysis; assay type: functional
HepG2 = assay: Antiproliferative activity against human HepG2 cells assessed as reduction in cell viability measured for 48 hrs by MTT assay; assay type: functional, cell-based; conditions: HepG2, 48 h
MDA-MB-231 [3] = assay: Induction of apoptosis in human MDA-MB-231 cells assessed as apoptotic cells at 4 uM incubated for 12 hrs by Annexin V-FITC/PI staining based analysis; assay type: functional
MCF7 = assay: Antiproliferative activity against human MCF7 cells assessed as reduction in cell viability measured for 48 hrs by MTT assay; assay type: functional, cell-based; conditions: MCF7, 48 h
MDA-MB-231 [4] = assay: Antiproliferative activity against human MDA-MB-231 cells assessed as reduction in viability at 4 uM incubated for 7.5 hrs by MTT assay; assay type: functional
NCI-H1299 = assay: Antiproliferative activity against human NCI-H1299 cells assessed as reduction in cell viability measured for 48 hrs by MTT assay; assay type: functional, cell-based; conditions: NCI-H1299, 48 h
[5] = molecular target: Dual specificity protein kinase CLK4 (Homo sapiens, UniProt Q9HAZ1); assay: Inhibition of CLK4 (unknown origin)
MDA-MB-231 [6] = assay: Induction of apoptosis in human MDA-MB-231 cells assessed as increase in number of apoptotic bodies at 4 uM incubated for 48 hrs; assay type: functional, cell-based
HUVEC [7] = assay: Antiangiogenesis activity in HUVEC cells at 0.03 to 0.3 uM incubated for 12 hrs by microscopic analysis; assay type: functional, cell-based; conditions: Homo sapiens, dose 0.03-0.3 µM
MDA-MB-231 [8] = assay: Induction of apoptosis in human MDA-MB-231 cells assessed as apoptotic cells at 40 uM incubated for 48 hrs by Annexin V-FITC/PI staining based analysis; assay type: functional
[9] = Hepatotoxicity in nude mouse at 10 mg/kg, ip measured for 3 days; assay type: toxicity, organism-based; conditions: in vivo, 72 h, time 3 day
[10] = molecular target: Dual specificity protein kinase CLK1 (Homo sapiens, UniProt P49759); assay: Inhibition of CLK1 (unknown origin)
MDA-MB-231 [11] = assay: Antitumor activity against human MDA-MB-231 cells xenografted in nude mouse assessed as inhibition of lung metastasis in tumor at 10 mg/kg, ip measured for 3 days; assay type: functional, organism-based; conditions: time 3.0 day
HUVEC [12] = assay: Antiangiogenesis activity in HUVEC cells at 62.5 nM incubated for 12 hrs by microscopic analysis; assay type: functional, cell-based; conditions: Homo sapiens
[13] = molecular target: Casein kinase I isoform epsilon (Homo sapiens, UniProt P49674); assay: Inhibition of CK1epsilon (unknown origin)
[14] = molecular target: Dual specificity protein kinase CLK2 (Homo sapiens, UniProt P49760); assay: Inhibition of CLK2 (unknown origin)
[15] = Antiproliferative activity against human HUVEC cells assessed as reduction in cell viability measured for 48 hrs by MTT assay; assay type: toxicity, cell-based
MDA-MB-231 [16] = assay: Induction of apoptosis in human MDA-MB-231 cells assessed as change in cell shape at 4 uM incubated for 12 to 24 hrs; assay type: functional, cell-based; conditions: time 12-24 hrs
MDA-MB-231 [17] = assay: Induction of apoptosis in human MDA-MB-231 cells assessed as increase in number of cell debris at 4 uM incubated for 48 hrs; assay type: functional, cell-based
K562 = assay: Antiproliferative activity against human K562 cells assessed as reduction in cell viability measured for 48 hrs by MTT assay; assay type: functional, cell-based; conditions: K562, 48 h
MDA-MB-231 [18] = assay: Induction of apoptosis in human MDA-MB-231 cells assessed as apoptotic cells at 4 uM incubated for 24 hrs by Annexin V-FITC/PI staining based analysis; assay type: functional
Cell membrane = assay: Induction of mitochondrial membrane potential loss in human MDA-MB-231 cells assessed as increase in fluorescence intensity at 40 uM incubated for 48 hrs by TMRM dye based flow cytometry analysis (reference value: 97.5%)
MDA-MB-231 [19] = assay: Inhibition of cell migration human MDA-MB-231 cells assessed as migration distance at 25 uM incubated for 48 hrs by wound healing assay (reference value: 642.72 micrometer); assay type: functional
MDA-MB-231 [20] = assay: Induction of apoptosis in human MDA-MB-231 cells assessed as apoptotic cells at 40 uM incubated for 24 hrs by Annexin V-FITC/PI staining based analysis; assay type: functional
MDA-MB-468 = assay: Antiproliferative activity against human MDA-MB-468 cells assessed as reduction in cell viability measured for 48 hrs by MTT assay; assay type: functional, cell-based; conditions: MDA-MB-468, 48 h
A549 = assay: Antiproliferative activity against human A549 cells assessed as reduction in cell viability measured for 48 hrs by MTT assay; assay type: functional, cell-based; conditions: A549, 48 h
MDA-MB-231 [21] = assay: Inhibition of cell migration human MDA-MB-231 cells at 0.01 to 0.4 uM incubated for 20 hrs by DAPI staining based analysis; assay type: functional; conditions: dose 0.01-0.4 µM
MDA-MB-231 [22] = assay: Induction of apoptosis in human MDA-MB-231 cells assessed as formation of apoptotic bodies at 4 uM incubated for 6 hrs; assay type: functional, cell-based
PC-3 = assay: Antiproliferative activity against human PC-3 cells assessed as reduction in cell viability measured for 48 hrs by MTT assay; assay type: functional, cell-based; conditions: PC-3, 48 h
[23] = molecular target: Dual specificity tyrosine-phosphorylation-regulated kinase 1A (Homo sapiens, UniProt Q13627); assay: Inhibition of DYRK1A (unknown origin)
[24] = Antiproliferative activity against human HEK293 cells assessed as reduction in cell viability measured for 48 hrs by MTT assay; assay type: toxicity, cell-based
HT-29 = assay: Antiproliferative activity against human HT-29 cells assessed as reduction in cell viability measured for 48 hrs by MTT assay; assay type: functional, cell-based; conditions: HT-29, 48 h
MDA-MB-231 [25] = assay: Antitumor activity against human MDA-MB-231 cells xenografted in nude mouse assessed as reduction in tumor growth at 10 to 20 mg/kg, ip measured for 3 days; assay type: functional, organism-based; conditions: dose 10-20 mg/kg, time 3.0 day
MDA-MB-231 [26] = assay: Inhibition of cell migration human MDA-MB-231 cells assessed as migration distance at 25 uM incubated for 24 hrs by wound healing assay (reference value: 642.72 micrometer); assay type: functional
MDA-MB-231 [27] = assay: Antitumor activity against human MDA-MB-231 cells xenografted in nude mouse assessed as decrease in CD31 expression at 10 mg/kg, ip measured for 3 days by immunohistochemistry analysis; assay type: functional, organism-based; conditions: time 3.0 day
MDA-MB-231 [28] = assay: Induction of apoptosis in human MDA-MB-231 cells assessed as apoptotic cells at 4 uM incubated for 48 hrs by Annexin V-FITC/PI staining based analysis; assay type: functional
MDA-MB-231 [29] = assay: Induction of ROS generation in human MDA-MB-231 cells assessed as increase in intracellular ROS level at 40 uM incubated for 48 hrs by DCFH-DA staining based fluorescence microscopic analysis (Rvb=41.4%); assay type: functional
MGC-803 = assay: Antiproliferative activity against human MGC-803 cells assessed as reduction in cell viability measured for 48 hrs by MTT assay; assay type: functional, cell-based; conditions: MGC-803, 48 h
MDA-MB-231 [30] = assay: Antitumor activity against human MDA-MB-231 cells xenografted in nude mouse assessed as decrease in tumor size at 10 to 20 mg/kg, ip measured for 3 days; assay type: functional, organism-based; conditions: dose 10-20 mg/kg, time 3.0 day
HCT-116 = assay: Antiproliferative activity against human HCT-116 cells assessed as reduction in cell viability measured for 48 hrs by MTT assay; assay type: functional, cell-based; conditions: HCT-116, 48 h
[31] = Toxicity in nude mouse xenografted with human MDA-MB-231 cells assessed as change in body weight at 10 to 20 mg/kg, ip measured for 3 days; assay type: organism-based; conditions: in vivo, 72 h, dose 10-20 mg/kg, time 3 day
[32] = molecular target: Cyclin-dependent kinase 7 (Homo sapiens, UniProt P50613); assay: Inhibition of CDK7 (unknown origin)
MDA-MB-231 [33] = assay: Antiproliferative activity against human MDA-MB-231 cells assessed as reduction in viability at 10 uM incubated for 7.5 hrs by MTT assay; assay type: functional
MDA-MB-231 [34] = assay: Antitumor activity against human MDA-MB-231 cells xenografted in nude mouse assessed as inhibition of spleen metastasis in tumor at 10 mg/kg, ip measured for 3 days; assay type: functional, organism-based; conditions: time 3.0 day
MDA-MB-231 [35] = assay: Antitumor activity against human MDA-MB-231 cells xenografted in nude mouse assessed as inhibition of proliferation of tumor cells at 10 mg/kg, ip measured for 3 days by H and E staining based analysis; assay type: functional, organism-based; conditions: time 3.0 day
MDA-MB-231 [36] = assay: Antitumor activity against human MDA-MB-231 cells xenografted in nude mouse assessed as decrease in Ki67 expression at 10 mg/kg, ip measured for 3 days by immunohistochemistry analysis; assay type: functional, organism-based; conditions: time 3.0 day

Cyclin-dependent kinase 7, sequence (P50613 whole entry): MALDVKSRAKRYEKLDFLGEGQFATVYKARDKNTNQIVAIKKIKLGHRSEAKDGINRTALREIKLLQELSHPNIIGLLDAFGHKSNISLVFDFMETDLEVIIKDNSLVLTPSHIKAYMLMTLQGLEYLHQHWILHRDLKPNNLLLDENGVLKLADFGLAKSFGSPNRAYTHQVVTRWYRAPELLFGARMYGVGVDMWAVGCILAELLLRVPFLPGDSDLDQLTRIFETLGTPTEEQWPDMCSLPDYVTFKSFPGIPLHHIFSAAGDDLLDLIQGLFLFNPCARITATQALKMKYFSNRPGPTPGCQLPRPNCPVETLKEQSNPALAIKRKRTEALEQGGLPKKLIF
Dual specificity protein kinase CLK2, sequence (P49760 whole entry): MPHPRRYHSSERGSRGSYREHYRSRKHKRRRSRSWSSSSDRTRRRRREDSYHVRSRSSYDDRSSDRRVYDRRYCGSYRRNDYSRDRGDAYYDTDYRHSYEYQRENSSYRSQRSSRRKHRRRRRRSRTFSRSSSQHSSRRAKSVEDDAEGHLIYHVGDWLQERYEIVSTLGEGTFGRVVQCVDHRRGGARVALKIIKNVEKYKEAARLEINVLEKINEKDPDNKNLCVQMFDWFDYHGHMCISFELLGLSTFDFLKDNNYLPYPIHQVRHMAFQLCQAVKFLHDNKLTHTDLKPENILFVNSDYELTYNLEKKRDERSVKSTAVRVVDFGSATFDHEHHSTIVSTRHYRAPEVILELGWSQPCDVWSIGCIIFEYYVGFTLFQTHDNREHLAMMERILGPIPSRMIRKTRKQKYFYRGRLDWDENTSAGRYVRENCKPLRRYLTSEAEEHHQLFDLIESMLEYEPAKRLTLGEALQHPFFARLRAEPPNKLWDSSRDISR
Casein kinase I isoform epsilon, sequence (P49674 whole entry, canonical isoform): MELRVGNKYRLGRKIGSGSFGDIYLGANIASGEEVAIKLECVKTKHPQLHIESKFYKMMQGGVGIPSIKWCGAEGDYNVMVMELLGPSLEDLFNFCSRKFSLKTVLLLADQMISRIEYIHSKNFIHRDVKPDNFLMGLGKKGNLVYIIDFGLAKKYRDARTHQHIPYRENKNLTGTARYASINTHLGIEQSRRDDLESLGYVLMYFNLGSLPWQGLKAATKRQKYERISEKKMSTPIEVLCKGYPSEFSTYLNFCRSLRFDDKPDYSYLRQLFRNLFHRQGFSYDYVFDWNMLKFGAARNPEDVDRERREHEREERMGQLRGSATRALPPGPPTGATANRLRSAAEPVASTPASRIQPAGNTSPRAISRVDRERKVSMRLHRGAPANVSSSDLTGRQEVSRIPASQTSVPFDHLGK
Dual specificity protein kinase CLK1, sequence (P49759 whole entry): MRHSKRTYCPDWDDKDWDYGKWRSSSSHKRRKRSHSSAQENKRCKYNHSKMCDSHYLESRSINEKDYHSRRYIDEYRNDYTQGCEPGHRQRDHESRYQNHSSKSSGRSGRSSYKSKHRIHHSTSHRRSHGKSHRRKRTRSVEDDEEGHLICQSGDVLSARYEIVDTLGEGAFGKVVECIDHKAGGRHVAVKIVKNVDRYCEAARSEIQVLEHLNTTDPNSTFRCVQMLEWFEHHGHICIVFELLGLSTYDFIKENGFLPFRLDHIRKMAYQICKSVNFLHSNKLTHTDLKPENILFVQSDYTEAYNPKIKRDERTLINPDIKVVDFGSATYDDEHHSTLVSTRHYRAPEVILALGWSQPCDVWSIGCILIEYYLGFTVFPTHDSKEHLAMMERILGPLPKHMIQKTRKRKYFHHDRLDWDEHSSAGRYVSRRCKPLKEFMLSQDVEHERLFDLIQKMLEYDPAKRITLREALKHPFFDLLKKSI
Dual specificity protein kinase CLK4, sequence (Q9HAZ1 whole entry): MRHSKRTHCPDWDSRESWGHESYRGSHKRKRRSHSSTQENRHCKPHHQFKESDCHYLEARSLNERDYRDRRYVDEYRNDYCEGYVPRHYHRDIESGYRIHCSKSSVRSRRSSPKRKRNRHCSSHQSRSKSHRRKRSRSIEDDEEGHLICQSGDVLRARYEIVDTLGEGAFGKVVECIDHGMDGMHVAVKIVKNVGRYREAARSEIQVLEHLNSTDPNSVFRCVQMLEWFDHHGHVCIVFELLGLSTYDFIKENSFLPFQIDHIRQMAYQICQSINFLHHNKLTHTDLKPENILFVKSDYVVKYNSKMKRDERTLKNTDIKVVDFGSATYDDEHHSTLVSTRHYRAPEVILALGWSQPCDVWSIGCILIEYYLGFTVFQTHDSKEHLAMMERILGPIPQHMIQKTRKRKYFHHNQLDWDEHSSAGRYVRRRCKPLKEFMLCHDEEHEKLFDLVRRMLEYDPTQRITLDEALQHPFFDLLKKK

OCCN1CCC(C2CCN(c3nc(NCc4cccc(F)c4F)c4ncn(C5CCCC5)c4n3)CC2)CC1
IC50 (MDA-MB-231 [1]): 3.55 µM
Activity (MDA-MB-231 [2]): >95%
IC50 (HepG2): 0.25 µM
Activity (MDA-MB-231 [3]): 5.6%
IC50 (MCF7): 2.67 µM
Activity (MDA-MB-231 [4]): ~100%
IC50 (NCI-H1299): 4.05 µM
IC50 [5]: 0.073 µM
Activity (MDA-MB-231 [6]): Active
Activity (HUVEC [7]): Active
Activity (MDA-MB-231 [8]): >95%
Activity [9]: Non-Toxic
IC50 [10]: 0.278 µM
Activity (MDA-MB-231 [11]): Active
Activity (HUVEC [12]): Active
IC50 [13]: 0.038 µM
IC50 [14]: 0.023 µM
IC50 at 48 h [15]: 6.18 µM
Activity (MDA-MB-231 [16]): Active
Activity (MDA-MB-231 [17]): Active
IC50 (K562): 0.24 µM
Activity (MDA-MB-231 [18]): 13%
Activity (Cell membrane): 80.9%
Activity (MDA-MB-231 [19]): 53.38 um
Activity (MDA-MB-231 [20]): >95%
IC50 (MDA-MB-468): 3.69 µM
IC50 (A549): 0.37 µM
inhibition (MDA-MB-231 [21]): Active
Activity (MDA-MB-231 [22]): Active
IC50 (PC-3): 3.92 µM
IC50 [23]: 0.122 µM
IC50 at 48 h [24]: 4.28 µM
IC50 (HT-29): 3.37 µM
Activity (MDA-MB-231 [25]): Active
Activity (MDA-MB-231 [26]): 24.88 um
Activity (MDA-MB-231 [27]): Active
Activity (MDA-MB-231 [28]): 54.9%
Activity (MDA-MB-231 [29]): 48.6%
IC50 (MGC-803): 3.52 µM
Activity (MDA-MB-231 [30]): Active
IC50 (HCT-116): 2.79 µM
Activity [31]: Non-Toxic
IC50 [32]: 0.39 µM
Activity (MDA-MB-231 [33]): ~100%
Activity (MDA-MB-231 [34]): Active
Activity (MDA-MB-231 [35]): Active
Activity (MDA-MB-231 [36]): Active
